Molecular target: T1, GST-tagged-Wee1 kinase (Homo sapiens, UniProt P30291)
T1 construct: purchased Carnabio (Carna Biosciences) 05-177
Test: Wee1 time-resolved fluorescence equilibrium binding assay (displacement of Oregon Green-labeled ATP-competitive kinase probe)
Settings: read-out: Wee-1 inhibition (Ki)
Outline: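 Time-resolved fluorescence equilibrium binding with GST-Wee1, measuring displacement of a rapidly reversible Oregon Green-labelled ATP-competitive probe by competitive inhibitors; values reported as Ki.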

T1 sequence (P30291 whole entry): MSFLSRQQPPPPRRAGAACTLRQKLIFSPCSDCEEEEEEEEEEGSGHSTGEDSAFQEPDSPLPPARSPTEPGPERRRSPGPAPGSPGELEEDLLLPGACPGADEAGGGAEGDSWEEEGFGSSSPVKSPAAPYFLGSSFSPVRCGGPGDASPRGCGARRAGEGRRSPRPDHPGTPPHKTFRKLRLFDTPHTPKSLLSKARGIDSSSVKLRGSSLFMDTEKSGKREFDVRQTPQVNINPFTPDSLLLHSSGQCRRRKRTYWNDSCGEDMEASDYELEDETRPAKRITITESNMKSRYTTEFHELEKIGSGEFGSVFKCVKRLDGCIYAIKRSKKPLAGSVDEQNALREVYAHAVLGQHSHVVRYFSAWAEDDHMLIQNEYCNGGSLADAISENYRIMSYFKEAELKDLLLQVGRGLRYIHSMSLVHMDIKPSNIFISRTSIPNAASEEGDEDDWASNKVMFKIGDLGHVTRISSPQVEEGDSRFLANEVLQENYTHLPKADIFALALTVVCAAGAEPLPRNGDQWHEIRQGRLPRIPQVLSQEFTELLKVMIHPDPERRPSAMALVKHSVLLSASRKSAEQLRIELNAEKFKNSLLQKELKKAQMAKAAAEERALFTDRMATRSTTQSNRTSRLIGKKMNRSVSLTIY

Row | Ki [nM] | SMILES
1 | < 10 | CN(C)CCCN1CCN(c2ccc(Nc3ncc4c(=O)n(-c5ccccc5Cl)c5nccn5c4n3)cc2)CC1 [Example 250, 6-(2-chlorophenyl)-2-[(4-{4-[3-(dimethylamino)propyl]piperazin-1-yl}phenyl)amino]imidazo[1,2-a]pyrimido[5,4-e]pyrimidin-5(6H)-one]
2 | < 10 | COC[C@H]1CCCN1c1ccc(Nc2ncc3c(=O)n(-c4ccccc4Cl)c4nccn4c3n2)cc1 [Example 251, 6-(2-chlorophenyl)-2-({4-[(2R)-2-(methoxymethyl)pyrrolidin-1-yl]phenyl}amino)imidazo[1,2-a]pyrimido[5,4-e]pyrimidin-5(6H)-one]
3 | < 10 | CCN(CC)C(=O)C1CCCN(c2ccc(Nc3ncc4c(=O)n(-c5ccccc5Cl)c5nccn5c4n3)cc2)C1 (centres unmarked) [Example 252, 1-(4-{[6-(2-chlorophenyl)-5-oxo-5,6-dihydroimidazo[1,2-a]pyrimido[5,4-e]pyrimidin-2-yl]amino}phenyl)-N,N-diethylpiperidine-3-carboxamide]
4 | < 10 | O=C1CCCN1CCCNc1ccc(Nc2ncc3c(=O)n(-c4ccccc4Cl)c4nccn4c3n2)cc1 [Example 253, 6-(2-chlorophenyl)-2-[(4-{[3-(2-oxopyrrolidin-1-yl)propyl]amino}phenyl)amino]imidazo[1,2-a]pyrimido[5,4-e]pyrimidin-5(6H)-one]
5 | 10 to 100 | O=c1c2cnc(Nc3ccc(N4CCN(c5ccc(F)cc5)CC4)cc3)nc2n2ccnc2n1-c1ccccc1Cl [Example 254, 6-(2-chlorophenyl)-2-({4-[4-(4-fluorophenyl)piperazin-1-yl]phenyl}amino)imidazo[1,2-a]pyrimido[5,4-e]pyrimidin-5(6H)-one]
6 | < 10 | CN(C)C1CCN(c2ccc(Nc3ncc4c(=O)n(-c5c(F)cccc5Cl)c5nccn5c4n3)cc2)CC1 [Example 255, 6-(2-chloro-6-fluorophenyl)-2-({4-[4-(dimethylamino)piperidin-1-yl]phenyl}amino)imidazo[1,2-a]pyrimido[5,4-e]pyrimidin-5(6H)-one]
7 | < 10 | O=c1c2cnc(Nc3ccc4c(c3)CC(N3CC[C@H](F)C3)C4)nc2n2ccnc2n1-c1c(F)cccc1Cl (stereo partly drawn) [Example 256, 6-(2-chloro-6-fluorophenyl)-2-({2-[(3S)-3-fluoropyrrolidin-1-yl]-2,3-dihydro-1H-inden-5-yl}amino)imidazo[1,2-a]pyrimido[5,4-e]pyrimidin-5(6H)-one]
8 | < 10 | O=c1c2cnc(Nc3ccc4c(c3)CC(NCCF)C4)nc2n2ccnc2n1-c1c(F)cccc1Cl (centres unmarked) [Example 257, 6-(2-chloro-6-fluorophenyl)-2-({2-[(2-fluoroethyl)amino]-2,3-dihydro-1H-inden-5-yl}amino)imidazo[1,2-a]pyrimido[5,4-e]pyrimidin-5(6H)-one]
9 | < 10 | CCCNC1Cc2ccc(Nc3ncc4c(=O)n(-c5c(F)cccc5Cl)c5nccn5c4n3)cc2C1 (centres unmarked) [Example 258, 6-(2-chloro-6-fluorophenyl)-2-{[2-(propylamino)-2,3-dihydro-1H-inden-5-yl]amino}imidazo[1,2-a]pyrimido[5,4-e]pyrimidin-5(6H)-one]
10 | < 10 | O=c1c2cnc(Nc3ccc4c(c3)CC(N3CCCC3)C4)nc2n2ccnc2n1-c1c(F)cccc1Cl (centres unmarked) [Example 259, 6-(2-chloro-6-fluorophenyl)-2-{[2-(pyrrolidin-1-yl)-2,3-dihydro-1H-inden-5-yl]amino}imidazo[1,2-a]pyrimido[5,4-e]pyrimidin-5(6H)-one]
11 | < 10 | CN(C)CCN1CCN(c2ccc(Nc3ncc4c(=O)n(-c5ccccc5Cl)c5nccn5c4n3)cc2)CC1 [Example 260, 6-(2-chlorophenyl)-2-[(4-{4-[2-(dimethylamino)ethyl]piperazin-1-yl}phenyl)amino]imidazo[1,2-a]pyrimido[5,4-e]pyrimidin-5(6H)-one]
12 | < 10 | CN(C)CCCN(C)c1ccc(Nc2ncc3c(=O)n(-c4ccccc4Cl)c4nccn4c3n2)cc1 [Example 261, 6-(2-chlorophenyl)-2-[(4-{[3-(dimethylamino)propyl](methyl)amino}phenyl)amino]imidazo[1,2-a]pyrimido[5,4-e]pyrimidin-5(6H)-one]
13 | < 10 | CCN(CCN(C)C)c1ccc(Nc2ncc3c(=O)n(-c4ccccc4Cl)c4nccn4c3n2)cc1 [Example 262, 6-(2-chlorophenyl)-2-[(4-{[2-(dimethylamino)ethyl](ethyl)amino}phenyl)amino]imidazo[1,2-a]pyrimido[5,4-e]pyrimidin-5(6H)-one]
14 | < 10 | CN(C)CCN(C)c1ccc(Nc2ncc3c(=O)n(-c4ccccc4Cl)c4nccn4c3n2)cc1 [Example 263, 6-(2-chlorophenyl)-2-[(4-{[2-(dimethylamino)ethyl](methyl)amino}phenyl)amino]imidazo[1,2-a]pyrimido[5,4-e]pyrimidin-5(6H)-one]
15 | 10 to 100 | COC[C@@H]1CCCN1c1ccc(Nc2ncc3c(=O)n(-c4ccccc4Cl)c4nccn4c3n2)cc1 [Example 264, 6-(2-chlorophenyl)-2-({4-[(2S)-2-(methoxymethyl)pyrrolidin-1-yl]phenyl}amino)imidazo[1,2-a]pyrimido[5,4-e]pyrimidin-5(6H)-one]
16 | < 10 | CC(C)C(=O)N1Cc2cc(Nc3ncc4c(=O)n(-c5c(F)cccc5Cl)c5nccn5c4n3)ccc2C2(CC2)C1 [Example 265, 6-(2-chloro-6-fluorophenyl)-2-{[2′-(2-methylpropanoyl)-2′,3′-dihydro-1′H-spiro[cyclopropane-1,4′-isoquinolin]-7′-yl]amino}imidazo[1,2-a]pyrimido[5,4-e]pyrimidin-5(6H)-one]
17 | < 10 | CC(C)(C)C(=O)N1Cc2cc(Nc3ncc4c(=O)n(-c5c(F)cccc5Cl)c5nccn5c4n3)ccc2C2(CC2)C1 [Example 266, 6-(2-chloro-6-fluorophenyl)-2-{[2′-(2,2-dimethylpropanoyl)-2′,3′-dihydro-1′H-spiro[cyclopropane-1,4′-isoquinolin]-7′-yl]amino}imidazo[1,2-a]pyrimido[5,4-e]pyrimidin-5(6H)-one]
18 | < 10 | O=C(C1CCCC1)N1Cc2cc(Nc3ncc4c(=O)n(-c5c(F)cccc5Cl)c5nccn5c4n3)ccc2C2(CC2)C1 [Example 267, 6-(2-chloro-6-fluorophenyl)-2-{[2′-(cyclopentylcarbonyl)-2′,3′-dihydro-1′H-spiro[cyclopropane-1,4′-isoquinolin]-7′-yl]amino}imidazo[1,2-a]pyrimido[5,4-e]pyrimidin-5(6H)-one]
19 | < 10 | O=c1c2cnc(Nc3ccc(NCCc4c[nH]cn4)cc3)nc2n2ccnc2n1-c1ccccc1Cl [Example 268, 6-(2-chlorophenyl)-2-[(4-{[2-(1H-imidazol-4-yl)ethyl]amino}phenyl)amino]imidazo[1,2-a]pyrimido[5,4-e]pyrimidin-5(6H)-one]
20 | < 10 | O=c1c2cnc(Nc3ccc(NCCCn4ccnc4)cc3)nc2n2ccnc2n1-c1ccccc1Cl [Example 269, 6-(2-chlorophenyl)-2-[(4-{[3-(1H-imidazol-1-yl)propyl]amino}phenyl)amino]imidazo[1,2-a]pyrimido[5,4-e]pyrimidin-5(6H)-one]
21 | < 10 | O=c1c2cnc(Nc3ccc(N4CCSCC4)cc3)nc2n2ccnc2n1-c1ccccc1Cl [Example 270, 6-(2-chlorophenyl)-2-{[4-(thiomorpholin-4-yl)phenyl]amino}imidazo[1,2-a]pyrimido[5,4-e]pyrimidin-5(6H)-one]
22 | < 10 | CC(C)NCCN(c1ccc(Nc2ncc3c(=O)n(-c4ccccc4Cl)c4nccn4c3n2)cc1)C(C)C [Example 271, 6-(2-chlorophenyl)-2-[(4-{propan-2-yl[2-(propan-2-ylamino)ethyl]amino}phenyl)amino]imidazo[1,2-a]pyrimido[5,4-e]pyrimidin-5(6H)-one]
23 | 10 to 100 | NC(=O)C1CCCN(c2ccc(Nc3ncc4c(=O)n(-c5ccccc5Cl)c5nccn5c4n3)cc2)C1 (centres unmarked) [Example 272, 1-(4-{[6-(2-chlorophenyl)-5-oxo-5,6-dihydroimidazo[1,2-a]pyrimido[5,4-e]pyrimidin-2-yl]amino}phenyl)piperidine-3-carboxamide]
24 | < 10 | CN1CCCC1CCNc1ccc(Nc2ncc3c(=O)n(-c4c(Cl)cccc4Cl)c4nccn4c3n2)cc1 (centres unmarked) [Example 273, 6-(2,6-dichlorophenyl)-2-[(4-{[2-(1-methylpyrrolidin-2-yl)ethyl]amino}phenyl)amino]imidazo[1,2-a]pyrimido[5,4-e]pyrimidin-5(6H)-one]
25 | < 10 | CC(C)C(=O)N1Cc2cc(Nc3ncc4c(=O)n(-c5c(Cl)cccc5Cl)c5nccn5c4n3)ccc2C2(CC2)C1 [Example 274, 6-(2,6-dichlorophenyl)-2-{[2′-(2-methylpropanoyl)-2′,3′-dihydro-1′H-spiro[cyclopropane-1,4′-isoquinolin]-7′-yl]amino}imidazo[1,2-a]pyrimido[5,4-e]pyrimidin-5(6H)-one]
26 | < 10 | O=C(C1CC1)N1Cc2cc(Nc3ncc4c(=O)n(-c5c(Cl)cccc5Cl)c5nccn5c4n3)ccc2C2(CC2)C1 [Example 275, 2-{[2′-(cyclopropylcarbonyl)-2′,3′-dihydro-1′H-spiro[cyclopropane-1,4′-isoquinolin]-7′-yl]amino}-6-(2,6-dichlorophenyl)imidazo[1,2-a]pyrimido[5,4-e]pyrimidin-5(6H)-one]
27 | < 10 | CC(C)(C)C(=O)N1Cc2cc(Nc3ncc4c(=O)n(-c5c(Cl)cccc5Cl)c5nccn5c4n3)ccc2C2(CC2)C1 [Example 276, 6-(2,6-dichlorophenyl)-2-{[2′-(2,2-dimethylpropanoyl)-2′,3′-dihydro-1′H-spiro[cyclopropane-1,4′-isoquinolin]-7′-yl]amino}imidazo[1,2-a]pyrimido[5,4-e]pyrimidin-5(6H)-one]
28 | 10 to 100 | O=c1c2cnc(Nc3cnc4c(c3)CNCC4)nc2n2ccnc2n1-c1c(F)cccc1Cl [Example 277, 6-(2-chloro-6-fluorophenyl)-2-(5,6,7,8-tetrahydro-1,6-naphthyridin-3-ylamino)imidazo[1,2-a]pyrimido[5,4-e]pyrimidin-5(6H)-one]
29 | < 10 | O=c1c2cnc(Nc3ccc4c(c3)CNCC43CC3)nc2n2ccnc2n1-c1cccc(O)c1Cl [Example 278, 6-(2-chloro-3-hydroxyphenyl)-2-(2′,3′-dihydro-1′H-spiro[cyclopropane-1,4′-isoquinolin]-7′-ylamino)imidazo[1,2-a]pyrimido[5,4-e]pyrimidin-5(6H)-one]
